Values after ≈ are worked out from the molar mass of the structure shown. Read-outs that look alike come from different tables or passages of the source.
How the values were obtained:
[1] = target: T1, Aβ(1-42) (Homo sapiens, UniProt P05067); test: ThT equilibrium inhibition assay of Aβ aggregation; type: biochemical; details: for ThT values compared with the original trimer: Aβ(1-42), in words
T1 construct: Aβ(1-42)-peptide (Bachem, Bubendorf, Germany) was prepared in HFIP; purchased Bachem, Bubendorf
Procedure: After 72 h, the aggregation process has reached a maximum in the absence or presence of any trimeric ligand, even for the slow Aβ (1-40) peptide. The respective equilibrium concentration is then indicated by the relative fluorescence intensity reached at the end point. The full series of new aminopyrazole trimer derivatives was subjected to ThT inhibition experiments and the final equilibrium was analyzed by comparison of the respective fluorescence intensities of intercalated dye at 482 nm (exc. at 442 nm). […] Their proposed mechanism of action is discussed within the next chapters together with all the other biophysical, biochemical as well as modeling data.
(§1) Thioflavin T (ThT) measurements were carried out in a 384-well plate (Nunc GmbH, Wiesbaden, Germany) in an InfiniTe 200 plate reader (Tecan GmbH, Crailsheim, Germany). Fluorescence intensity was measured at 37° C., 446 nm excitation wavelength (bandwidth 9 nm) and 490 nm emission wavelength with a bandwidth of 20 nm. Each data point was averaged over 40 lamp flashes. Each measurement cycle was started by shaking the sample carrier orbitally for 30 s at medium intensity to avoid settling of larger aggregates. The 384-well plate was covered with a transparent and DMSO-stable film (Nunc GmbH, Wiesbaden, Germany). Each single sample was composed of 33 μM Aβ(1-40) or rather Aβ(1-42) in 10 mM PBS (phosphate buffered saline), 10.7% DMSO, 10 μM ThT and 198 μM of the test compound. For graph representation emission values of fourfold samples were averaged. Each test compound was measured separately, both in 10 mM PBS and 10 mM PBS with ThT to exclude any potential interactions between ligand and ThT.
The ThT assay solution was briefly centrifugated and it was pipetted in a 384-well plate. The ThT fluorescence was measured at λEx=446 nm and λEm=490 nm. Each point is the average of quadruplication.

[2] = target: T2, preformed Aβ(1-42) fibrils (Homo sapiens, UniProt P05067); test: ThT equilibrium disaggregation assay of preformed fibrils; type: biochemical; details: 33 μM Aβ42 preformed fibrils, 198 μM ligand, 10 mM PBS pH 7.3
T2 construct: Aβ(1-42)-peptide (Bachem, Bubendorf, Germany) was prepared in HFIP; purchased Bachem, Bubendorf
Text: Starting from preformed fibrils, the disassembly process was also monitored with the full series of modified trimeric aminopyrazoles. […] In other words, little difference is observed between the end points of aggregation assays, in which the ligand inhibits de novo aggregation starting from monomeric Aβ molecules, and those experiments, which require disaggregation of preformed fibrils by externally added ligand. Experimental evidence is thus provided for the fact, that aminopyrazole ligands operate in a fully reversible fashion, and reach an open equilibrium when the thermodynamically most favorable complex is formed.
as §1
After that, 9.5 μL ThT (62.7 μM stock solution) was pipetted and the assay solution was briefly centrifugated. The ThT fluorescence was measured at λEx=446 nm and λEm=490 nm. For graph representation emission values of fourfold samples were averaged.

[3] = test system: differentiated rat pheochromocytoma (PC-12) cells; test: cells; details: for PC-12 cell protection: in words, compared to the Trimer standard
Procedure: Next, to examine whether the aminopyrazole trimers could protect cell from Aβ42-induced neurotoxicity, cells were treated for […] with 10 μM Aβ(1-42), a concentration that produces 30 to 40% decrease in cell viability, in the absence or presence of 100 μM of each compound. The viability of the cells then was assessed using the MTT assay.
MTT viability assays. Cell viability assays were performed as described in Fradinger et al. (Fradinger et al., PNAS, 2008). Rat pheochromocytoma (PC-12) cells were maintained in F-12 nutrient mixture with Kaighn's modification (F-12K) (Gibco BRL, Carlsbad, Calif.) with 15% heat-inactivated horse serum and 2.5% FBS at 37° C. in an atmosphere of 5% CO2. For cell viability assays, cells were plated in 96-well plates at a density of 25,000 cells per well in differentiation media (F-12K, 0.5% FBS, […] nerve growth factor) and maintained for 48 h. Aβ42 was solubilized in a minimal amount of DMSO (Sigma) and then diluted in the F-12K media in the absence or presence of the compounds and then added to cells and incubated for 48 h at 37° C. The final Aβ42 concentration was always kept constant at 10 μM. The stock solutions of the compounds were prepared at 10 mM in DMSO and diluted in the F-12K media at the required concentration. Negative controls included DMSO at the same concentration as in the peptide solutions and media alone. A positive control was […] staurosporine as lethal dose which represented 100% reduction in cell viability, based on which the percentage viability of all of the experimental conditions was calculated. Cell viability was assessed quantitatively by the CellTiter 96 Non-Radioactive Cell Proliferation Assay (Promega). Briefly, 15 μl of 3-(4,5-dimethylthiazol-2-yl)-2,5-diphenyltetra-zolium bromide (MTT) dye solution was incubated with the cells for 3 h. Then 100 μl of solubilization/stop solution was added and the plates were incubated overnight in the dark to ensure complete solubilization. Plates were read by using a Synergy HT microplate reader (BioTek), and the absorbance at 570 nm (formazan product) minus the absorbance at 630 nm (background) was recorded. Corrected absorbance was used to calculate the percent cell viability from the experimental change (Amedia-Aexperimental) over the dynamic range (Amedia-Astaurosporine). At least three independent experiments with six replicates (n≧18) were carried out, and the results were averaged.
To determine the IC50 value of each of the compounds, dose-dependence MTT experiments with the compounds were conducted. Aβ42 was used at 10 μM and the compounds were used at 100, 30, 10, 3, 1 and 0.3 μM. Three independent experiments with six replicates (n≧18) were carried out, and results were averaged. The data for each compound was fitted to the following equation to get the IC50 values. y=Bottom+((Top−Bottom)/(1+10^(x-log(IC^50^))))
Top: the y value at which the top of the sigmoidal curve becomes parallel to the X-axis; Bottom: the y value at which the bottom of the sigmoidal curve becomes parallel to the X-axis.
Also, MTT viability assays were run with differentiated PC-12 cells.

[4] = Solubility of the unprotected aminopyrazole trimers (stock solutions); details: water (class a) or DMSO (class b)
Procedure: The ligands were dissolved in 100% DMSO as 4.95 mM stock solutions and were stored at −20° C.

[5] = Rattus norvegicus, PC-12, read-out: IC50 of inhibition of Aβ-induced toxicity

T1 sequence (P05067 672-713 limits assumed): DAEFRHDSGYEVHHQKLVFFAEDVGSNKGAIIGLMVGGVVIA
T2 sequence (P05067 672-713 limits assumed): as above

| Molecule | solubility [4] [mM] | ThT values compared with the original trimer [1] | IC50 [3, 5] [µM] | further results |
| --- | --- | --- | --- | --- |
| 1-(3-(3-(3-nitro-1H-pyrazole-5-carboxamido)-1H-pyrazole-5-carbox-amido)-1H-pyrazol-5-yl)-1-oxo-5,8,11-trioxa-2-azatridecan-13-carboxamido-(S)-lysinyl-(S)-lysinyl-(S)-lysinyl-(S)-lysinyl-(S)-lysinyl-(S)-glycine [Trimer-TEG-KKKKKG-OH] | – | – | – | ThT fluorescence level, inhibition of aggregation ([1]; 33 μM Aβ42, 198 μM ligand, 10 mM PBS pH 7.3, 72 h): 20%; ThT fluorescence level, disaggregation [2]: 20% |
| NCCCC[C@H](NC(=O)c1cc(NC(=O)c2cc(NC(=O)c3cc([N+](=O)[O-])n[nH]3)n[nH]2)n[nH]1)C(=O)NCCCOCCOCCOCCCNC(=O)[C@H](CCCCN)NC(=O)c1cc(NC(=O)c2cc(NC(=O)c3cc([N+](=O)[O-])n[nH]3)n[nH]2)n[nH]1 [Trim-Lys-TEGDA-Lys-Trim, N,N′-((5S,23S)-1,27-diamino-6,22-dioxo-11,14,17-trioxa-7,21-diazaheptacosane-5,23-diyl)bis(3-(3-(3-nitro-1H-pyrazole-5-carboxamido)-1H-pyrazole-5-carboxamido)-1H-pyrazole-5-carboxamide)] | > 4.95 | – | 21.5 | – |
| CC(NC(=O)c1cc(NC(=O)c2cc(NC(=O)c3cc([N+](=O)[O-])n[nH]3)n[nH]2)n[nH]1)C1CCCCC1 (stereo not drawn) [Trimer-Che, N-(1-Cyclohexylethyl)-3-(3-(3-nitro-1H-pyrazole-5-carboxamido)-1H-pyrazole-5-carboxamido)-1H-pyrazole-5-carboxamide] | 0.2 to 4.95 (≈ 96.9 to 2400 µg/mL) | surpass the original trimer activity | – | – |
| CC(NC(=O)C(NC(=O)c1cc(NC(=O)c2cc(NC(=O)c3cc([N+](=O)[O-])n[nH]3)n[nH]2)n[nH]1)C1CCCCC1)C1CCCCC1 (stereo not drawn) [Trimer-Chg-Che, N-(1-Cyclohexyl-2-(1-cyclohexylethylamino)-2-oxoethyl)-3-(3-(3-nitro-1H-pyrazol-5-carboxamido)-1H-pyrazol-5-carboxamido)-1H-pyrazol-5-carboxamide] | 0.2 to 4.95 (≈ 125 to 3090 µg/mL) | – | 81 | – |
| O=C(O)CCCNC(=O)c1cc(NC(=O)c2cc(NC(=O)c3cc([N+](=O)[O-])n[nH]3)n[nH]2)n[nH]1 [Trimer-GABA-OH, 4-(3-(3-(3-Nitro-1H-pyrazole-5-carboxamido)-1H-pyrazole-5-carboxamido)-1H-pyrazole-5-carboxamido)butanoic acid] | 0.2 to 4.95 (≈ 92.1 to 2280 µg/mL) | above the trimer standard | 18.5 | – |
| COC(=O)CCCNC(=O)c1cc(NC(=O)c2cc(NC(=O)c3cc([N+](=O)[O-])n[nH]3)n[nH]2)n[nH]1 [Trimer-GABA-OMe, 4-(3-(3-(3-Nitro-1H-pyrazole-5-carboxamido)-1H-pyrazole-5-carboxamido)-1H-pyrazole-5-carboxamido)butanoic acid methyl ester] | 0.2 to 4.95 (≈ 94.9 to 2350 µg/mL) | above the trimer standard | 20.3 | – |
| CC(NC(=O)C(CCCCN)NC(=O)c1cc(NC(=O)c2cc(NC(=O)c3cc([N+](=O)[O-])n[nH]3)n[nH]2)n[nH]1)C1CCCCC1.O=C(O)C(F)(F)F (stereo not drawn) [Trimer-Lys-Che, N-(6-Amino-1-(1-cyclohexylethylamino)-1-oxohexan-2-yl)-3-(3-(3-nitro-1H-pyrazole-5-carboxamido)-1H-pyrazole-5-carboxamido)-1H-pyrazole-5-carboxamide-trifluoro-acetate] | > 4.95 | surpass the original trimer activity | – | – |
| CC(NC(=O)COCCOCCOCCNC(=O)c1cc(NC(=O)c2cc(NC(=O)c3cc([N+](=O)[O-])n[nH]3)n[nH]2)n[nH]1)C1CCCCC1 (stereo not drawn) [Trimer-TEG-Che, N-(13-Cyclohexyl-11-oxo-3,6,9-trioxa-12-azatetradecyl)-3-(3-(3-nitro-1H-pyrazole-5-carboxamido)-1H-pyrazole-5-carboxamido)-1H-pyrazole-5-carboxamide] | 0.2 to 4.95 (≈ 135 to 3330 µg/mL) | – | – | – |
| Trimer-TEG-LPFFD-OH [1-(3-(3-(3-nitro-1H-pyrazole-5-carboxamido)-1H-pyrazole-5-carbox-amido)-1H-pyrazol-5-yl)-1-oxo-5,8,11-trioxa-2-azatridecan-13-carboxamido-(S)-leucinyl-(S)-prolinyl-(S)-phenylalaninyl-(S)-phenylalaninyl-(S)-aspartic acid] | – | – | – | IC50 ([3]; read-out: IC50 of inhibition of Aβ-induced toxicity, PC-12 cells, MTT, Aβ42 10 μM, ligand 0.3-100 μM): 10.1 µM |

Second part, led by results:

| solubility [4] [mM] | ThT values compared with the original trimer [1] | Molecule | IC50 [3, 5] [µM] | further results |
| --- | --- | --- | --- | --- |
| 0.2 to 4.95 (≈ 146 to 3620 µg/mL) | – | CCCCCCCCCCCCNC(=O)COCCOCCOCCNC(=O)c1cc(NC(=O)c2cc(NC(=O)c3cc([N+](=O)[O-])n[nH]3)n[nH]2)n[nH]1 [Trimer-TEG-Dodecyl, 3-Nitro-N-(5-(5-(11-oxo-3,6,9-trioxa-12-azatetracosylcarbamoyl)-1H-pyrazol-3-ylcarbamoyl)-1H-pyrazol-3-yl)-1H-pyrazole-5-carboxamide] | > 100 | – |
| 0.2 to 4.95 (≈ 119 to 2930 µg/mL) | – | CCOC(=O)COCCOCCOCCNC(=O)c1cc(NC(=O)c2cc(NC(=O)c3cc([N+](=O)[O-])n[nH]3)n[nH]2)n[nH]1 [Trimer-TEG-OEt, 1-(3-(3-(3-Nitro-1H-pyrazole-5-carboxamido)-1H-pyrazole-5-carboxamido)-1H-pyrazole-5-yl)-1-oxo-5,8,11-trioxa-2-azatridecan-13-oic acid ethyl ester] | – | PC-12 cell protection [3]: only very modest |
| 0.2 to 4.95 (≈ 113 to 2790 µg/mL) | – | O=C(O)COCCOCCOCCNC(=O)c1cc(NC(=O)c2cc(NC(=O)c3cc([N+](=O)[O-])n[nH]3)n[nH]2)n[nH]1 [Trimer-TEG-OH, {2-[2-(2-{[5-({5-[(5-Nitro-2H-pyrazole-3-carbonyl)-amino]-2H-pyrazole-3-carbonyl}-amino)-2H-pyrazole-3-carbonyl]-amino}-ethoxy)-ethoxy]-ethoxy}-acetic acid] | 35.3 | PC-12 cell protection [3]: only very modest |
| 0.2 to 4.95 (≈ 83.5 to 2070 µg/mL) | above the trimer standard | NCCNC(=O)c1cc(NC(=O)c2cc(NC(=O)c3cc([N+](=O)[O-])n[nH]3)n[nH]2)n[nH]1 [Trimer-diamine, N-(2-Aminoethyl)-3-(3-(3-nitro-1H-pyrazole-5-carboxamido)-1H-pyrazole-5-carboxamido)-1H-pyrazole-5-carboxamide] | – | – |

From US8481494B2, “Compounds for the treatment of diseases related to protein misfolding” (priority 2009, dated 2013)
